Results reported in patent publication US20240122906A1, “METHODS OF TREATING MELANOMA WITH RIPRETINIB” (Deciphera Pharmaceuticals, LLC, priority 2021, published 2024).

Tests used:
[1] = Food effect (high-fat meal) on ripretinib and Compound A exposure; assay type: in vivo; conditions: for AUC0-24h higher by / Cmax higher by: ripretinib 150 mg dose with a high-fat meal
Experimental: The effect of a high-fat breakfast on ripretinib and Compound A exposure was evaluated. A high fat meal consisted of approximately 150, 250, and 500-600 calories from protein, carbohydrate, and fat, respectively. […] Therefore, ripretinib may be taken with or without food at approximately same time each day.

[2] = Coadministration of ripretinib with a strong CYP3A inhibitor (itraconazole): exposure; assay type: in vivo; conditions: coadministration of ripretinib with itraconazole (strong CYP3A inhibitor and P-gp inhibitor)
[3] = Coadministration of ripretinib with a proton-pump inhibitor (pantoprazole): exposure; assay type: in vivo; conditions: for differences in plasma exposure: ripretinib coadministered with pantoprazole
Experimental: The effect of a proton-pump inhibitor on the exposure of ripretinib was evaluated.

Solubility = assay type: physicochemical
patients with melanoma = experiment: Phase 1 study of treating melanoma with ripretinib (efficacy, RECIST 1.1); assay type: in vivo, human
Experimental: This is a Phase 1 study to evaluate the efficacy of ripretinib in treating patients with melanoma. An efficacy cohort of 26 patients were enrolled. Each patient was administered 150 mg of ripretinib daily in repeated 28-day cycles until disease progression, unacceptable toxicity, or consent withdrawal. Patients who had disease progression at ripretinib 150 mg QD were allowed to escalate to 150 mg twice daily (BID) after the completion of Cycle 2. The efficacy endpoints includes Objective Response Rate (ORR), Disease Control Rate (DCR), Duration of Response (DOR) Time to Best Response (TBR), and progression-free survival (PFS) as determined by radiologic review using Response Evaluation Criteria in Solid Tumors (RECIST 1.1).
Prior tyrosine kinase inhibitor (TKI) treatment analysis. […] 17 of the 25 members of the cohort received no prior TKI and, among these members, the mPFS was determined to be 10.2 months and the ORR was determined to be 29.4% (5 out of 17 members). 8 of the 25 members received TKI treatment prior to receiving ripretinib and, among these members, the mPFS was determined to be 2.9 months and the ORR was determined to be 11% (1 out of […] members).
Mutational Analysis. An analysis of the efficacy of ripretinib based on baseline mutations of melanoma among the efficacy cohort was performed. […] L576P (Exon 11), K642E (Exon 13) and N822K/Y (Exon 17) were determined to be the most prevalent baseline mutations in this cohort.

[4] = investigator assessment, Total (N = 26)
[5] = investigator assessment, Total, n 6

## CCn1c(=O)c(-c2cc(NC(=O)Nc3ccccc3)c(F)cc2Br)cc2cnc(N)cc21 [Compound A]
[1]
  AUC0-24h higher by: 47%
  Cmax higher by: 66%
[2]
  increase in AUC0-inf: 99%
  increase in Cmax: no change
[3]
  differences in plasma exposure: No clinically significant differences

## CCn1c(=O)c(-c2cc(NC(=O)Nc3ccccc3)c(F)cc2Br)cc2cnc(NC)cc21 [ripretinib]
[1]; based on exposure-response analysis
  food effect, clinical significance: not considered to be clinically significant
[1]
  AUC0-24h higher by: 30%
  Cmax higher by: 22%
Solubility
  solubility: pH-dependent solubility
Patients with melanoma; 150 mg daily, 28-day cycles, whole efficacy cohort
  median PFS: 7.3 months
Patients with melanoma; Exon 11 patients
  confirmed ORR: 44%
  median PFS: 10.2 months
  median duration of response: 10.5 months
  median time to confirmed response: 1.9 months
Patients with melanoma; Exon 17 patients
  confirmed ORR: 18%
  median PFS: 13.6 months
  median duration of response: 8.1 months
  median time to confirmed response: 1.7 months
Patients with melanoma; KIT Exon 11 (N = 9)
  Confirmed Partial Response, %: (44.4) %
  No Response Assessment, %: (11.1) %
  Progressive Disease, %: (11.1) %
  Stable Disease (≥6 wks), %: (33.3) %
Patients with melanoma; KIT Exon 13 (N = 4)
  Progressive Disease, %: (50.0) %
  Stable Disease (≥6 wks), %: (50.0) %
Patients with melanoma; KIT Exon 17 (N = 11)
  Confirmed Complete Response, %: (9.1) %
  Confirmed Partial Response, %: (9.1) %
  Progressive Disease, %: (36) %
  Stable Disease (≥6 wks), %: (45.5) %
Patients with melanoma; KIT Exon 18 (N = 1)
  Progressive Disease, %: 100.0%
Patients with melanoma; KIT Exon Amplification (N = 1)
  Stable Disease (≥6 wks), %: 100.0%
Patients with melanoma; investigator assessment, Total
  Objective Response Rate, %: (23.1) %
  Time to Response, Median: 1.9 Months
Patients with melanoma; [4]
  Best Overall Response: Confirmed Complete Response, %: (3.8) %
  Best Overall Response: Confirmed Partial Response, %: (19.2) %
  Best Overall Response: No Response Assessment, %: (4) %
  Best Overall Response: Progressive Disease, %: (31) %
  Best Overall Response: Stable Disease (≥6 weeks duration), %: (42.3) %
Patients with melanoma; [5]
  Duration of Response, Max: 28.6 Months
  Duration of Response, Mean: 10.5 Months
  Duration of Response, Median: 9.1 Months
  Duration of Response, Min: 4.1 Months
Patients with melanoma; no prior TKI treatment
  mPFS: 10.2 months
Patients with melanoma; no prior TKI treatment (5 out of 17)
  ORR: 29.4%
Patients with melanoma; prior TKI treatment
  mPFS: 2.9 months
Patients with melanoma; prior TKI treatment (1 out of 9)
  ORR: 11%
Patients with melanoma; radiologic review using RECIST version 1.1, whole cohort (6 out of 26)
  confirmed ORR: 23.1%
Patients with melanoma; whole cohort
  confirmed and unconfirmed ORR: 30.8%
  median DOR (mDOR): 9.1 months
[2]
  increase in AUC0-inf: 99%
  increase in Cmax: 36%
[3]; 40 mg QD pantoprazole with 150 mg QD ripretinib
  effect on ripretinib exposure: did not affect ripretinib exposure
[3]
  differences in plasma exposure: No clinically significant differences
